Test results from BigSolDB 2.1.

CC(C)[C@H](N)C(=O)O
Conditions | solubility (mole fraction)
in DMF, 293.15 K | 1.25e-06
in DMF, 303.25 K | 2.49e-06
in DMF, 313.25 K | 4.36e-06
in DMF, 323.15 K | 7.48e-06
in DMF, 333.25 K | 1.06e-05
in DMF, 343.25 K | 1.49e-05
in acetone, 293.15 K | 4.96e-07
in acetone, 302.95 K | 9.91e-07
in acetone, 313.35 K | 1.98e-06
in acetone, 323.35 K | 2.97e-06
in acetone, 328.15 K | 3.97e-06
in ethanol, 293.15 K | 1.18e-05
in ethanol, 303.75 K | 2.36e-05
in ethanol, 313.15 K | 3.69e-05
in ethanol, 323.15 K | 5.34e-05
in ethanol, 333.25 K | 7.62e-05
in ethanol, 343.25 K | 0.000109
in isopropanol, 293.45 K | 2.56e-06
in isopropanol, 303.05 K | 4.61e-06
in isopropanol, 313.35 K | 7.17e-06
in isopropanol, 323.25 K | 1.08e-05
in isopropanol, 333.05 K | 1.54e-05
in isopropanol, 343.35 K | 2.1e-05
in water, 293.55 K | 0.00884
in water, 303.05 K | 0.00938
in water, 313.15 K | 0.0101
in water, 323.05 K | 0.0109
in water, 333.25 K | 0.0117
in water, 343.15 K | 0.0129
